{"source": "patent US10201558B2", "about": "“Compositions of selenoorganic compounds and methods of use thereof” (Alltech, Inc., priority 2014, dated 2019)", "key": {"IMR-32 cells [1]": {"system": "IMR-32 cells", "experiment": "Cell viability assay (CellTiter96 AQueous One, OD490)", "assay_type": "cell-based, human", "conditions": "150 ppb, 72 hours", "experimental": "Cell viability in cultured IMR-32 cells was determined using Promega's CellTiter96® AQueous One Solution Cell Proliferation Assay kits, according to the manufacturer's protocol and instructions. In brief, IMR-32 cells were seeded on 96-well clear plates (VWR) at a density of 2×10^4 cells/well, and treated with control or compounds of the present invention for 24 hours, 28 hours, and/or 72 hours.\nThe cultured cells were then incubated with AQueous One solution (100 ul/per well) at 37° C. for 1 hour. The absorbance at OD490 nm in each sample was determined by a Bio-Tek microplate reader. Cell viability in cultured cells were determined by the subtraction of OD490 nm in cultured cells with the OD490 nm in plain culture media without seeding of cells (control). Eight samples per each treatment were examined for the above analysis.\nCell viability assays were performed on cells after treatment with various compounds (150 ppb selenium compounds and equal dilution of their sulfur analog) for 24 hours, and 72 hours."}, "IMR-32 cells [2]": {"system": "IMR-32 cells", "experiment": "Mitochondrial potential assay (Mitotracker Orange)", "assay_type": "cell-based, human", "conditions": "75 ppb and 150 ppb", "experimental": "The mitochondrial potential per cell in control lentiviral KD IMR-32 or IMR-32 FOXO4 knockdown (KD) cells was determined using the Bio-TeK Synergy HT Multi-Mode fluorescence microplate reader with the following modifications. To improve the attachment of IMR-32 cells to culture dishes, cell culture plates were precoated with 0.1% gelatin (Sigma, St. Louis, Mo.).\nTo reduce cell dislodgment, Mitotracker Orange and Hoechst 33342 fluorescent dyes (diluted in culture media) were directly added to each well after control or compound treatments were added. After dye incubation, cell culture media was carefully replaced with 1×PBS buffer for the quantitation analysis of fluorescence on the microplate reader. Eight samples per each treatment were examined for the above analysis, and the experiments were repeated at least five times. Data are presented as mean±sem of eight samples.\nMitochondrial (MT) dysfunction and dysregulated glucose metabolism are associated with the onset of Alzheimer's Disease (AD). Likewise, as AD progresses, there is strong evidence that Aβ and Tau protein species precipitate further mitochondrial decline. […]"}, "PPARG": {"system": "PPARG", "experiment": "QRT-PCR of PPARG mRNA in IMR-32 cells (normal, control KD, FOXO4 KD)", "assay_type": "cell-based, human", "experimental": "IMR-32 cells were cultured on 12-well plates for 24 hours and then incubated with FOXO4 siRNA lentiviruses (SC-29650V, Santa Cruz) or control siRNA lentiviruses (sc-108080, Santa Cruz) in the presence of Polybrene (5 μg/ml, Santa Cruz) for 24 hours according to the manufacturer's protocol. These lentiviral siRNA-transfected cells were amplified in normal media for 3 days and then incubated with puromycin for 9-14 days to obtain the stable Control KD (stably transfected with the control siRNAs) and FOXO4KD (stably transfected with Foxo4 siRNAs) cells. These control and Foxo4 KD cells were subjected to cell survival, mitochondrial potential and RNA analysis.\nHuman IMR-32 cells were seeded on gelatinized 6-well (6.5×10^5 cells/well) or 24-well (1.3×10^5 cells/well) plates. Cells were treated with control (0 ppb) or various compounds for 6 hours or 24 hours. Total RNA from these cells was isolated using Trizol (Invitrogen) according to the manufacturer's protocol, and then incubated with DNase I to remove any potential contaminated genomic DNA. Then RNA samples were subjected to real-time PCR analysis using the Applied-Bioscience's RT kit and predesigned Taqman probes (Invitrogen), as described previously (Lan et al EMBO J 2003). The mRNA levels of UCP1, UCP2, UCP3, SLC25A27 (UCP4), SLC25A14 (UCP5), PSEN1, Nicastrin, GSK3B, MAPK11-14, PPARG, APOE, RCAN1, RCAN1.1, G6PC, INSR, IGF1R and FOXO4 were measured. Three to six samples were analyzed in each treatment group. Data were normalized by Actin B (ACTB) or Glyceraldehyde Phosphate Dehydrogenase (GAPDH) mRNA levels in each sample and are presented as mean±SEM of 3-6 samples.\nTo explore this possibility, IMR-32 cells were treated with 150 ppb Compound C, Compound D or Compound E (150 ppb) for 6 hours and 24 hours, and then subjected to Western blot and QRT-PCR analyses. […] Therefore, Compound C and Compound D are downregulators of PPARG in IMR-32 cells at both mRNA and protein levels. […]"}, "[3]": {"system": "Notch signaling molecules", "experiment": "Microarray expression profiles of 65 Notch signaling molecules in APP/PS1 mice", "assay_type": "in vivo, mouse", "conditions": "microarray heatmap, 5 control and 6 Compound C treated APP/PS1 mice", "experimental": "To further investigate potential toxic effects of compound on the Notch signaling, microarray analysis was performed. Expression of Notch signaling molecules in the brains of Compound C-treated APP/PS1 mice was analyzed. […] Brain tissues were collected and subjected to microarray analysis. The transcription profiles of 65 Notch receptor signaling (based GO search) related genes were pulled out from the original microarray datasets, and then subjected to unsupervised hierarchical clustering analysis based on arrays (animals) using GeneSpring 13.0 software (Agilent Technologies, Inc.), to generate the heatmap of these gene expression (see FIG. 19). In the heatmap, gene expression levels (normalized by Actb) were shown in color intensity that reflect the expression changes compared to mean value of each gene, where blue, red or yellow colors represent decreased, increased or no change in the level of expression intensity, respectively. The dendogram on the top reflects the extent of similarity of expression profiles between animals."}}, "note": "“Also recorded” adds a separate entry of the source.", "data": [{"smiles": "C[Se]C[C@H]1O[C@@H](n2cnc3c(N)ncnc32)C(O)C1O", "note": "(stereo in doubt) [Compound C, 5′-deoxy-5′-methylselenoadenosine]", "values": [{"measurement": "cell viability (OD490)", "setting": "IMR-32 cells [1]", "value": "small, but significant increase"}, {"measurement": "MT potential (red fluorescence intensities, micrographs)", "setting": "IMR-32 cells [2]; 6 hours", "value": "remarkably enhanced"}, {"measurement": "MT potential, quantitative analysis normalized by stained cell nuclei", "setting": "IMR-32 cells [2]; 6 hours and 24 hours", "value": "significant increase; also recorded: enhanced"}, {"measurement": "PPARG mRNA expression", "setting": "PPARG; FOXO4KD cells, 75 ppb and 150 ppb, 24 hours", "value": "not significantly altered"}, {"measurement": "PPARG mRNA levels", "setting": "PPARG; IMR-32 cells, 150 ppb, 6 hours", "value": "significantly lower"}, {"measurement": "PPARG mRNA levels", "setting": "PPARG; control normal cells, 75 ppb and 150 ppb, 24 hours", "value": "attenuated"}, {"measurement": "expression levels of Notch 1-4, RBPJ, Hey1, Hes1, Hey2 and other Notch signaling molecules", "setting": "[3]", "value": "did not have obvious change"}]}]}
